These results are taken from patent US7635664B2, “Herbicidal substituted benzoylpyrazoles” (Bayer CropScience AG, priority 2001, dated 2009).

Data set [1] can be described thus: logP determination by HPLC on reversed-phase column, acidic range. It counts as physicochemical. The settings on record: for logP: marked a): acidic range, 0.1% aqueous phosphoric acid/acetonitrile gradient, reversed-phase C 18 HPLC, 43° C. The source says:
(a) Mobile phases for the determination in the acidic range: 0.1% aqueous phosphoric acid, acetonitrile; linear gradient from 10% acetonitrile to 90% acetonitrile—the corresponding measurement results in Table 1 are marked ^a).

In data set [2] the test system is weeds. The data set is described as follows: Post-emergence test (Example B), weeds. It is filed as in vivo. Conditions: test plants of a height of 5-15 cm sprayed; rated after three weeks as % damage vs untreated control. The method, then:
(§1) To produce a suitable preparation of active compound, 1 part by weight of active compound is mixed with the stated amount of solvent, the stated amount of emulsifier is added and the concentrate is diluted with water to the desired concentration.
Test plants of a height of 5-15 cm are sprayed with the preparation of active compound such that the particular amounts of active compound desired are applied per unit area. The concentration of the spray liquor is chosen such that the particular amounts of active compound desired are applied in 1000 l of water/ha.
After three weeks, the degree of damage to the plants is rated in % damage in comparison to the development of the untreated control.
The figures denote: • 0%=no effect (like untreated control) • 100%=total destruction

Data set [3] concerns weeds. Put plainly: Pre-emergence test (Example A), weeds. It counts as in vivo. The settings on record: soil sprayed 24 hours after sowing; rated after three weeks as % damage vs untreated control. The method, then: as §1
Seeds of the test plants are sown in normal soil. After 24 hours, the soil is sprayed with the preparation of active compound such that the particular amount of active compound desired is applied per unit area. The concentration of active compound in the spray liquor is chosen such that the particular amount of active compound desired is applied in 1000 liters of water per hectare.
After three weeks, the degree of damage to the plants is rated in % damage in comparison to the development of the untreated control. The figures denote: • 0%=no effect (like untreated control) • 100%=total destruction

Take `CCn1ncc(C(=O)c2ccc(Cl)c(NC(=O)N3CCCN(C)C3=O)c2Cl)c1O` [Example 5]: in data set [1], the logP entry is recorded as “(I-2) logP = 1.83^a)”. Also, in data set [2], the “activity against weeds, post-emergence” value is on record as “strong activity”. The “activity against weeds, pre-emergence” value in data set [3] is on record as “strong activity”.
`CCn1ncc(C(=O)c2ccc(Cl)c(NC(=O)N3CCOCC3)c2Cl)c1O` [Example 6]: the logP entry in data set [1] is reported as “(I-2) logP = 1.13^a)”. Moreover, the “activity against weeds, pre-emergence” value in data set [3] is “strong activity”.
On to `CCn1ncc(C(=O)c2ccc(Cl)c(NC(=O)N(C)OC)c2Cl)c1O` [Example 2], for which, in data set [1], the logP result is “(I-2) logP = 1,39^a)”. For the same molecule, in data set [2], the “activity against weeds, post-emergence” value is reported as “strong activity”. Moreover, in data set [3], the “activity against weeds, pre-emergence” value is recorded as “strong activity”.
Turning to `CON(C)C(=O)Nc1c(Cl)ccc(C(=O)c2cnn(C)c2O)c1Cl` [Example 3], the logP entry in data set [1] is “(I-2) logP = 1.13^a)”. In addition, the “activity against weeds, pre-emergence” value in data set [3] was “strong activity”.
By chromatographic logP is commonly meant lipophilicity estimated from chromatographic retention. Read a high chromatographic logP as higher lipophilicity. Regarding `CCn1ncc(C(=O)c2ccc(Cl)c(NC(=O)N3CCN(C)C3=O)c2Cl)c1O` [Example 1, N-[2,6-dichloro-3-[(1-ethyl-5-hydroxy-1H-pyrazol-4-yl)-carbonyl]-phenyl]-3-methyl-2-oxo-1-imidazolidinecarboxamide], the chromatographic logP in data set [1] (reversed-phase C18 HPLC column, pH=2.3) was 1.58. Moreover, the “activity against weeds, post-emergence” value in data set [2] is “strong activity”. In addition, the “activity against weeds, pre-emergence” value in data set [3] is on record as “strong activity”.
